Measured values taken from patent US20150051078A1, “Glyphosate tank mix adjuvant comprising a base selected from a carbonate and/or a phosphate” (priority 2012, published 2015).

Legend:
[1] = Method: The volatility was determined by analyzing the loss of material by HLPL at 70° C. after 24 h at atmospheric pressure and the loss is summarized in Table 5. The application rate was 500 g/ha dicamba (free acid), 1000 g/ha potassium glyphosate, 300 g/ha Genamin® T050 (“Ad2”, 300 g/ha Preference® (“Ad3”) and optionally 250, 500 or 1000 g/ha K2CO3. Deionised water (hardness<1° dH) was used to prepare the samples. Dicamba BAPMA refers to the bis(3-aminopropyl)methylamine salt of dicamba.
[2] = system: Soya (glycine max) Variant Deltapine, genetically engineered to resist glyphosate; assay type: in vivo; conditions: conclusion from Table 4
Method: For the greenhouse tests, maize (cultivar Amadeo) and Chenopodium album was sown or potted in loamy sandy soil to a depth of 1-2 cm. When the plants had reached a growth height of 10 to 25 cm (around 10 to 21 days after sowing), the spray mixtures were applied to the plants in a spraying cabin.
The temperatures in the experimental period, which lasted for 3 to 4 weeks, were between 18-35° C. During this time, the experimental plants received optimum watering, with nutrients being supplied via the water used for watering.
The herbicidal activity was evaluated by awarding scores to the treated plants in comparison to the untreated control plants (Table 1 and 2). The evaluation scale ranges from 0% to 100% activity. 100% activity means the complete death at least of those parts of the plant that are above ground. Conversely, 0% activity means that there were no differences between treated and untreated plants.
The biological evaluation was made as described in Example 6. The tank mixes were applied at a application rate of 375 l/ha (125 or 250 g of glyphosate free acid/ha and 300 g of adjuvant/ha). The adjuvant Ad1 is an aqeuous solution of 200 g/l Genamin® T150 (a tallow fatty amine ethoxylate with 15 EO). The adjuvant Ad2 is Genamin® T050 (a tallow fatty amine ethoxylate with 5 EO).
Soya (glycine max) Variant Deltapine was genetically engineered to resist glyphosate.

| SMILES | Loss of dicamba, Loss (wt %) ([1]; 70° C., 24 h, atmospheric pressure, 500 g/ha dicamba (free acid), deionised water) | pH of tank mix ([1]; deionised water (hardness<1° dH)) | phytotoxity effect on plants of addition of K2CO3 [2] |
| --- | --- | --- | --- |
| CN(CCCN)CCCN.COc1c(Cl)ccc(Cl)c1C(=O)O [Dicamba BAPMA, bis(3-aminopropyl)methylamine salt of dicamba] | <1 | 6.3 |  |
| O=C([O-])[O-].[K+].[K+] [Example K2CO3, K2CO3] |  |  | no phytotoxity effect |
